The values below come from paper PMC3422614 (Biochemistry, 2011).

Entries after “also recorded” stand apart in the source; their conditions may differ. Where two headings read alike, the source gives them in different places. Where no end group is shown, it is not given here.

Series [1] has as its target T1, ERK2 (Rattus norvegicus, UniProt P63086). Type of series: biochemical.
The target in series [2] is T1, ERK2. Description: Kinetics of Sub-F phosphorylation by ERK2 at saturating Lig-D. Type of series: biochemical.
Series [3] concerns the target T1, ERK2. Description: Dose-response effect of docking ligands on ERK2 phosphorylation of Sub-D. Type of series: biochemical.
The target of series [4] is T1, ERK2. In words: Dose-response effect of docking ligands on ERK2 phosphorylation of Sub-F. Type of series: biochemical.
Series [5] concerns the target T1, ERK2. In words: Inhibition patterns for the phosphorylation of Sub-F by ERK2. Type of series: biochemical.
Series [6] deals with T1, ERK2. In words: Inhibition patterns for the phosphorylation of Sub-D by ERK2. Type of series: biochemical.
For series [7], the target named is T1, ERK2. Particulars: protein substrate; cited from earlier work.
The subject of another series is ERK•Ets-1 complex. Particulars: cited from earlier work.

T1 sequence (P63086 whole entry): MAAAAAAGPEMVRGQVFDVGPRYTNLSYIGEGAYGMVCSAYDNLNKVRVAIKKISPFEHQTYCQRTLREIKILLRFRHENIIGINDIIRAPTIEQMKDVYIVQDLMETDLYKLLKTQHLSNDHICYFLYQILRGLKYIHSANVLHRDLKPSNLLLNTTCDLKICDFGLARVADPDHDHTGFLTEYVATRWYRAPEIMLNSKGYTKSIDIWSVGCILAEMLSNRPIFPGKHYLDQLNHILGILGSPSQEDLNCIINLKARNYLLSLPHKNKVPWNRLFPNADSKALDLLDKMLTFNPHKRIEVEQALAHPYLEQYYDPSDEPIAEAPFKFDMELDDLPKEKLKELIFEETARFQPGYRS

As to YAEPLTPRILAKWEWPA-NH2 [Sub-F], the figures for the Ki at ERK2 [1] and on ERK2 [2] were 3.3 ± 1.1 µM and 5 ± 2 µM, respectively.
Turning to `CC(=O)N[C@@H](Cc1ccccc1)C(=O)N[C@@H](CCC(N)=O)C(=O)N[C@@H](CCCNC(=N)N)C(=O)N[C@@H](CCCCN)C(=O)N[C@H](C(=O)N[C@@H](CC(C)C)C(=O)N[C@@H](CCC(N)=O)C(=O)N[C@@H](CCCNC(=N)N)C(=O)N[C@@H](CCCNC(=N)N)C(=O)N[C@@H](CC(N)=O)C(=O)N[C@@H](CC(C)C)C(=O)N[C@@H](CCCCN)C(=O)NCC(=O)N[C@@H](CC(C)C)C(=O)N[C@@H](CC(N)=O)C(=O)N[C@@H](CC(C)C)C(=O)N[C@@H](CC(N)=O)C(=O)N[C@@H](CC(C)C)C(N)=O)[C@@H](C)O` [Lig-D], the IC50 – broadly, the concentration that inhibits the measured activity by half – against ERK2 [3] was determined as 30 ± 4 µM. For the same molecule, at ERK2 [4], a half-maximal effect (EC50) was put at 10 ± 8 µM.
Ac-YAPRAPAKLAFQFPSR-NH2 [Lig-F]: the Mechanism of inhibition entry at ERK2 [5] (varied MgATP, fixed Sub-F) is “Noncompetitive”; at ERK2 [5] (varied Sub-F, fixed MgATP), “Competitive”. Besides, the “Effect on Sub-D phosphorylation (kobs)” value on ERK2 [3] (Fig. 5A, Sub-D 3 μM, 1 mM MgATP, increasing ligand) is “no effect on kobs for the phosphorylation of Sub-D; also recorded: no effect on the ability of ERK2 to phosphorylate Sub-D”. The molecule also returned an IC50 at ERK2 [4] of 35 ± 3 µM. For the same molecule, at ERK2 [4] (Fig. 5B, Sub-F 15 μM, 1 mM MgATP, increasing ligand), the “Effect on Sub-F phosphorylation (kobs)” value is reported as “competitively inhibits Sub-F”.
In the case of `Nc1ncnc2c1ncn2[C@@H]1O[C@H](COP(=O)([O-])OP(=O)([O-])O)[C@@H](O)[C@H]1O.[Mg+2]` [MgADP], the Mechanism of inhibition result on ERK2 [6] (varied MgATP, fixed Sub-D) is “competitive pattern for towards MgATP^2-”; on ERK2 [6] (varied Sub-D, fixed MgATP), “Noncompetitive”; on ERK2 [5] (varied MgATP, fixed Sub-F) it was “competitive pattern for towards MgATP^2-”; at ERK2 [5] (varied Sub-F, fixed MgATP) it was “Noncompetitive”.

B1: Ets: murine (His6-tagged)Ets1(1-138), protein substrate of ERK2 (protein, UniProt P27577 1-138, looked up, fragment)
chain: MKAAVDLKPTLTIIKTEKVDLELFPSPDMECADVPLLTPSSKEMMSQALKATFSGFTKEQQRLGIPKDPRQWTETHVRDWVMWAVNEFSLKGVDFQKFCMSGAALCALGKECFLELAPDFVGDILWEHLEILQKEDVK
modifications: His6 tag
B1: the kcat with ERK2 [1] (Table 1, fit to eqn. 2, 27 °C, pH 7.4, 2 nM ERK2) stood at 17 ± 1 S^−1. Further, in the series with ERK2 [7], the “Kinetic mechanism of phosphorylation” value is given as “random-order mechanism” and the kcat/Km (commonly the second-order rate constant that governs catalysis at low substrate concentration) is 6e+06 M⁻¹ s⁻¹. The “stabilization of the ERK•Ets-1 complex by Ets-1 N-terminus docking to the DRS” value in the series with ERK•Ets-1 complex was “approximately 10 fold”.
